Experimental data: PMC5045448 (Analytical chemistry, 2016)
Where two headings read alike, the source gives them in different places. Marks after values point to notes of the source that are not given here.

Legend:
[1] = tested on: mAb 3H7A10; assay: Indirect competitive ELISA; type: binding, Balb/c mice; conditions: for Cross-reactivity: (IC50 of artemisinin/IC50 of other compound) × 100; for cross reactivities: artemisinin-specific mAb from position 9 hapten; for competitive inhibition: mAb 3H7A10, up to 20,000 ng mL^−1
[2] = in vivo; design: species or system Sprague-Dawley rats; conditions: Sprague-Dawley, rat, ip, 10 mg/kg
[3] = tested on: mAbs raised by artelinic acid-BSA conjugate; conditions: cited from earlier work
[4] = rats, cited from earlier work
[5] = humans, cited from earlier work
[6] = goat, cited from earlier work
[7] = dogs, cited from earlier work
[8] = tested on: mAbs reported by He et al.; conditions: relative to artemisinin; cited from earlier work
[9] = tested on: polyclonal antibodies prepared by Song et al.; conditions: cited from earlier work
[10] = tested on: mAbs generated by Tanaka et al.; conditions: relative to artemisinin; cited from earlier work

SMILES: C[C@@H]1CC[C@H]2[C@@H](C)C(=O)O[C@@H]3O[C@@]4(C)CC[C@@H]1[C@]32OO4 [Artemisinin]
- Cross-reactivity ([1]; mAb 3H7A10): 100 ± 4.6%
- IC50 ([1]; icELISA, mAb 3H7A10, means of triplicate ± SD, NI = no inhibition observed with up to 20,000 ng mL^−1 of the analytes): 2.60 ±0.12 ^b ng/mL
- AUC(0-t) [2]: 43.7 ng·h/mL
- Cmax [2]: 29.1 ± 3 ng/mL
- Tmax [2]: 5 min
- half-life [2]: 22.8 min
- binding by mAbs [3]: approximately the same level
- half-life ([4]; in all these studies): ~ 30 min
- AUC0-24h ([4]; intraperitoneal injection, 10 mg/kg): 0.132 µM/h
- AUC0-3h ([4]; oral administration, 10 mg/kg): 36.4 ng·h/mL
- AUC ([5]; another study): 754 ng·h/mL
- Cmax ([5]; another study): 167 ng/mL
- AUC ([5]; one study): 2,611 ng mL^−1 h
- Cmax ([5]; one study): 623 ng/mL
- half-life [5]: ~ 2 h
- absorption and bioavailability ([6]; large amount of unabsorbed artemisinin eliminated in feces): slow absorption and low bioavailability
- bioavailability ([7]; oral): bioavailability appeared low

SMILES: CCc1nc(N)nc(N)c1-c1ccc(Cl)cc1 [Pyrimethamine]
- Cross-reactivity ([1]; mAb 3H7A10): 0%

SMILES: CO[C@H]1O[C@@H]2O[C@@]3(C)CC[C@H]4[C@H](C)CC[C@@H]([C@H]1C)[C@@]24OO3 [Artemether]
- Cross-reactivity ([1]; mAb 3H7A10): 0%
- cross reactivities [1]: almost no cross reactivities
- competitive inhibition ([1]; icELISA): No competitive inhibition
- Cross-reactivity [8]: 3%
- recognition by polyclonal antibodies [9]: equally well
- binding by mAbs [3]: approximately the same level

SMILES: COc1cc(NC(C)CCCN)c2ncccc2c1 (stereo not drawn) [Primaquine phosphate]
- Cross-reactivity ([1]; mAb 3H7A10): 0%

SMILES: C=C[C@H]1C[N@@]2CC[C@H]1C[C@H]2[C@H](O)c1ccnc2ccc(OC)cc12 [Quinine]
- Cross-reactivity ([1]; mAb 3H7A10): 0%

SMILES: C[C@H]1[C@@H](O)O[C@@H]2O[C@@]3(C)CC[C@H]4[C@H](C)CC[C@@H]1[C@@]24OO3 [Dihydroartemisinin]
- Cross-reactivity ([1]; mAb 3H7A10): 0%
- cross reactivities [1]: almost no cross reactivities
- competitive inhibition ([1]; icELISA): No competitive inhibition
- Cross-reactivity [8]: 57%
- Cross-reactivity [10]: 30%
- recognition by polyclonal antibodies [9]: equally well
- time of peak of the metabolite ([6]; after artemisinin): 12 h
- blood concentrations ([7]; oral artemisinin): < 100 nM

SMILES: CCN(CC)CCCC(C)Nc1ccnc2cc(Cl)ccc12.O=P(O)(O)O.O=P(O)(O)O (stereo not drawn) [Chloroquine diphosphate salt]
- Cross-reactivity ([1]; mAb 3H7A10): 0%

SMILES: C[C@H]1[C@H](OC(=O)CCC(=O)O)O[C@@H]2O[C@@]3(C)CC[C@H]4[C@H](C)CC[C@@H]1[C@@]24OO3 [Artesunate]
- Cross-reactivity ([1]; mAb 3H7A10): 0%
- cross reactivities [1]: almost no cross reactivities
- competitive inhibition ([1]; icELISA): No competitive inhibition
- Cross-reactivity [8]: 650%
- Cross-reactivity [10]: 630%
- recognition by polyclonal antibodies [9]: equally well

SMILES: CCCCN(CCCC)CC(O)c1cc(Cl)cc2c1-c1ccc(Cl)cc1/C2=C/c1ccc(Cl)cc1 (stereo not drawn) [Lumefantrine]
- Cross-reactivity ([1]; mAb 3H7A10): 0%
